How the values were obtained:
[1] = reported, Zayat et al. 2003; cited from earlier work
chordin (chd) = experiment: chd knockdown phenotype in microinjected zebrafish embryos; assay type: in vivo; conditions: incubated in the dark; for Phenotype of embryos: injected at 1-cell stage, 24-28 hpf
Experimental: FIG. 15 is a series of images depicting zebrafish, including the chd-MO knockdown phenotype. Zebrafish embryos were injected at the 1-cell stage with 0.51 mM chd-MO and imaged at 24 hpf. […] Embryos scored as normal had V-shaped somites, and normal head and tail development. Severe was identified by decreased head size, U-shaped somites, and a large blood island on the tail. The moderate and mild phenotypes were identified by U-shaped somites and a medium or small blood island on the tail.
(§1) FIG. 16A is an image of a wildtype embryo, uninjected. […] All embryos were injected at 1-cell stage. […] MO Control: Zebrafish embryos were injected at the 1-cell stage with 0.25 mM ntl-MO and imaged at 24 hpf. Ru-MO-ntl: Zebrafish embryos were injected at the 1-cell stage with 0.25 mM Ru-MO-ntl. Half of the embryos were irradiated (450 nm, 14 mW/cm^2, 5 min) at 1 hpf, while the other half were incubated in the dark. Embryos were scored for phenotype at 24 hpf and compared to wildtype.
Zebrafish embryos were obtained. All embryos obtained were TLF×TLF WT. Zebrafish embryo injection solutions were prepared to contain a final concentration of 0.1 M KCl and 0.25% phenol red dye. All injections were performed at the one-cell stage and injected into the cell compartment only. A Harvard Apparatus PLI-100 pico-injector was used to inject controlled volumes. Injection volume was calibrated to dispense 5 nL per embryo. Zebrafish embryos were incubated at 28° C. in E3 zebrafish medium. […]
MO-chd or Ru-cMO-chd (514 pmol/μL) was microinjected into 1-cell-stage zebrafish embryos, which were incubated at 28° C. in the dark and at 24 hours post-fertilization (hpf), scored for phenotypic response and imaged using a previously reported method (Westerfield, from “The Zebrafish Book. A guide for the Laboratory Use of Zebrafish (Danio rerio).” 4th ed.; University of Oregon Press, 2000). Embryos scored as normal had V-shaped somites, and normal head and tail development. […]

[2] = 450-nm light, 53 mW/cm^2, 80 μM, 1.5 mL, stirred
Experimental: Light source: 450 nm laser (14 mW/cm^2), 14 μM RuBEP in water, 0.2 OD.
A sapphire Galaxy Blue handheld laser was purchased from Beam of Light Technologies (Oregon, USA) and used to determine the quantum yield of RuBEP. Measured power at the sample was 53 mW/cm^2, with a maximum output wavelength of 450 nm.
Photodissociation of 3EP from RuBEP was monitored by LCMS (FIG. 4), UV-Vis (FIG. 6B) and ^1H and ^13C NMR (FIG. 5) spectroscopies. Upon continuous irradiation with 450-nm light (53 mW/cm^2, focused to 0.5 cm^2), the λmax red-shifted from 450 nm to 473 nm (FIG. 6B).
The formula for fitting the initial kinetics of the photoreaction is as follows:
[formula] Where: P1=net power of the laser during the trial (mW) E=energy of 450 nm light (J/photon) εs=extinction coefficient of RuBEP (starting material) at 475 nm=1800 M^−1cm^−1 εp=extinction coefficient of Rubpy2(3EP)(H2O)(product) at 475 nm=3800 M^−1cm^−1

[3] = Selective photoactivation of Ru photolinkers (FIG. 25B); assay type: physicochemical
Description: FIG. 25, comprising FIG. 25A-25B, depicts exemplary compounds of the invention.
Compounds [Ru(bpy)2(4-pentynenitrile)2][Cl]2 (Ru420) and [Ru(biq)2(4-pentynenitrile)2][Cl]2 (Ru530) are compounds of the invention which are useful for multiplexing of DNA and morpholino oligonucleotides (FIG. 25A).

notail (ntl) = experiment: ntl knockdown phenotype in microinjected zebrafish embryos; assay type: in vivo; conditions: 0.25 mM injected at 1-cell stage, 24 hpf
Experimental: as §1
FIG. 17 is a series of images depicting zebrafish, including the ntl-MO knockdown phenotype. Zebrafish embryos were injected at the 1-cell stage with 0.25 mM ntl-MO and imaged at 24 hpf. […] Class 2 was identified by U-shaped somites, a shortened posterior axis, with the notochord still present.
FIG. 19 is a graph depicting Ru-cMO-ntl in vivo data. MO Control:Zebrafish embryos were injected at the 1-cell stage with 0.25 mM ntl-MO and imaged at 24 hpf. Ru-cMO-ntl:Zebrafish embryos were injected at the 1-cell stage with 0.25 mM Ru-cMO-ntl. Half of the embyros were irradiated (450 nm, 14 mW/cm^2, 5 min) at 1 hpf, while the other half were incubated in the dark. Embryos were scored for phenotype at 24 hpf and compared to wildtype.
Zebrafish embryos were obtained. All embryos obtained were TLF×TLF WT. […]

Compound: [Cl-].[Cl-].[Ru+2].c1ccc(-c2ccccn2)nc1.c1ccc(-c2ccccn2)nc1.c1ccncc1.c1ccncc1 [Ru(bpy)2(pyr)2Cl2]
- Quantum yield of ligand exchange [1]: 0.4

Compound: MO-chd: linear antisense morpholino targeting chordin, ATCCACAGCAGCCCCTCCATCATCC (SEQ ID NO: 4) (all phosphorodiamidate morpholino (PMO))
- Embryos with normal phenotype (chordin (chd); MO-chd control injections, 24 hpf): ~5%
- Phenotype of embryos (chordin (chd); listed as Bis-azido chd-MO): chd knockdown phenotype
- Phenotype of embryos (chordin (chd); listed as chd-MO): severe to mild

Compound: [Ru(bipyridine)2(3-ethynyl- pyridine)2]^2+ [RuBEP]
- Time to complete photolysis of bulk solution [2]: 5 min
- Selective activation [3]: can be selectively activated

Compound: [Ru(bipyridine)2(4- pentynenitrile)2]^2+ [Ru420]
- Selective activation [3]: can be selectively activated

Compound: [Ru(biquinoline)2(4- pentynenitrile)2]^2+ [Ru530]
- Selective activation [3]: can be selectively activated

Compound: ntl-MO: linear antisense morpholino targeting notail, AGCTTGAGATAAGTCCGACGATCCT (SEQ ID NO: 7) (all phosphorodiamidate morpholino (PMO))
- ntl knockdown phenotype (notail (ntl)): severe (class 4) to mild (class 2)

From patent US11046721B2, “Ruthenium-based photolinkers and methods of use” (The Trustees of the University of Pennsylvania, priority 2014, dated 2021)
